Reference: patent publication US8192962B2, “Processes for detecting toxic substances” (Daikin Industries, Ltd., priority 2001, dated 2012)

Tested on: Unknown protein yeast genes
Test: DNA chip mRNA expression in yeast, unknown protein yeast genes (Table 1)
Format: cell-based, Saccharomyces cerevisiae S288C
Summary of the method: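 S. cerevisiae S288C grown at 25° C. in YPD to log phase, then exposed 2 h to a toxicant at a growth-inhibiting, non-lethal concentration; untreated cells as control. Poly(A) mRNA reverse-transcribed with Cy3-dUTP or Cy5-dUTP, hybridized >12 h at 65° C. to whole-genome yeast DNA chip; value = fluorescence ratio treated/untreated.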

manganese ethylenebis(dithiocarbamate) [(8)]
The level of expressed mRNA in the presence of chemical substance/The level of expressed mRNA in the absence of chemical substance (yeast gene YKL195W, incubated two hours with chemical substance): 1.2
The level of expressed mRNA in the presence of chemical substance/The level of expressed mRNA in the absence of chemical substance (yeast gene YKR091W, incubated two hours with chemical substance): 1.3
The level of expressed mRNA in the presence of chemical substance/The level of expressed mRNA in the absence of chemical substance (yeast gene YLR054C, incubated two hours with chemical substance): 1.1
The level of expressed mRNA in the presence of chemical substance/The level of expressed mRNA in the absence of chemical substance (yeast gene YLR149C, incubated two hours with chemical substance): 1.1
The level of expressed mRNA in the presence of chemical substance/The level of expressed mRNA in the absence of chemical substance (yeast gene YLR152C, incubated two hours with chemical substance): 1.2
The level of expressed mRNA in the presence of chemical substance/The level of expressed mRNA in the absence of chemical substance (yeast gene YLR194C, incubated two hours with chemical substance): 1.0
The level of expressed mRNA in the presence of chemical substance/The level of expressed mRNA in the absence of chemical substance (yeast gene YLR324W, incubated two hours with chemical substance): 1.0
The level of expressed mRNA in the presence of chemical substance/The level of expressed mRNA in the absence of chemical substance (yeast gene YLR350W, incubated two hours with chemical substance): 1.0
The level of expressed mRNA in the presence of chemical substance/The level of expressed mRNA in the absence of chemical substance (yeast gene YLR387C, incubated two hours with chemical substance): 1.4
The level of expressed mRNA in the presence of chemical substance/The level of expressed mRNA in the absence of chemical substance (yeast gene YLR460C): 8.1
The level of expressed mRNA in the presence of chemical substance/The level of expressed mRNA in the absence of chemical substance (yeast gene YML117W, incubated two hours with chemical substance): 0.7
The level of expressed mRNA in the presence of chemical substance/The level of expressed mRNA in the absence of chemical substance (yeast gene YMR009W, incubated two hours with chemical substance): 1.4
The level of expressed mRNA in the presence of chemical substance/The level of expressed mRNA in the absence of chemical substance (yeast gene YMR067C, incubated two hours with chemical substance): 1.1
The level of expressed mRNA in the presence of chemical substance/The level of expressed mRNA in the absence of chemical substance (yeast gene YMR090W): 3.9
The level of expressed mRNA in the presence of chemical substance/The level of expressed mRNA in the absence of chemical substance (yeast gene YMR095C, incubated two hours with chemical substance): 1.2
The level of expressed mRNA in the presence of chemical substance/The level of expressed mRNA in the absence of chemical substance (yeast gene YMR097C, incubated two hours with chemical substance): 1.5
The level of expressed mRNA in the presence of chemical substance/The level of expressed mRNA in the absence of chemical substance (yeast gene YMR102C, incubated two hours with chemical substance): 1.0
The level of expressed mRNA in the presence of chemical substance/The level of expressed mRNA in the absence of chemical substance (yeast gene YMR107W, incubated two hours with chemical substance): 1.3
The level of expressed mRNA in the presence of chemical substance/The level of expressed mRNA in the absence of chemical substance (yeast gene YMR180C, incubated two hours with chemical substance): 1.8
The level of expressed mRNA in the presence of chemical substance/The level of expressed mRNA in the absence of chemical substance (yeast gene YMR184W, incubated two hours with chemical substance): 1.9
The level of expressed mRNA in the presence of chemical substance/The level of expressed mRNA in the absence of chemical substance (yeast gene YMR191W, incubated two hours with chemical substance): 1.1
The level of expressed mRNA in the presence of chemical substance/The level of expressed mRNA in the absence of chemical substance (yeast gene YMR295C, incubated two hours with chemical substance): 1.0
The level of expressed mRNA in the presence of chemical substance/The level of expressed mRNA in the absence of chemical substance (yeast gene YMR316W, incubated two hours with chemical substance): 1.6
The level of expressed mRNA in the presence of chemical substance/The level of expressed mRNA in the absence of chemical substance (yeast gene YNL044W, incubated two hours with chemical substance): 1.8
The level of expressed mRNA in the presence of chemical substance/The level of expressed mRNA in the absence of chemical substance (yeast gene YNL074C, incubated two hours with chemical substance): 0.6
The level of expressed mRNA in the presence of chemical substance/The level of expressed mRNA in the absence of chemical substance (yeast gene YNL092W, incubated two hours with chemical substance): 0.9
The level of expressed mRNA in the presence of chemical substance/The level of expressed mRNA in the absence of chemical substance (yeast gene YNL115C, incubated two hours with chemical substance): 0.8
The level of expressed mRNA in the presence of chemical substance/The level of expressed mRNA in the absence of chemical substance (yeast gene YNL156C, incubated two hours with chemical substance): 1.2
The level of expressed mRNA in the presence of chemical substance/The level of expressed mRNA in the absence of chemical substance (yeast gene YNL234W, incubated two hours with chemical substance): 1.3
The level of expressed mRNA in the presence of chemical substance/The level of expressed mRNA in the absence of chemical substance (yeast gene YNL281W, incubated two hours with chemical substance): 1.2
The level of expressed mRNA in the presence of chemical substance/The level of expressed mRNA in the absence of chemical substance (yeast gene YNL305C, incubated two hours with chemical substance): 0.7
The level of expressed mRNA in the presence of chemical substance/The level of expressed mRNA in the absence of chemical substance (yeast gene YNR068C, incubated two hours with chemical substance): 1.1
The level of expressed mRNA in the presence of chemical substance/The level of expressed mRNA in the absence of chemical substance (yeast gene YOL032W, incubated two hours with chemical substance): 1.5
The level of expressed mRNA in the presence of chemical substance/The level of expressed mRNA in the absence of chemical substance (yeast gene YOL036W, incubated two hours with chemical substance): 0.8
The level of expressed mRNA in the presence of chemical substance/The level of expressed mRNA in the absence of chemical substance (yeast gene YOL047C, incubated two hours with chemical substance): 1.1
The level of expressed mRNA in the presence of chemical substance/The level of expressed mRNA in the absence of chemical substance (yeast gene YOL071W, incubated two hours with chemical substance): 1.6
The level of expressed mRNA in the presence of chemical substance/The level of expressed mRNA in the absence of chemical substance (yeast gene YOL082W, incubated two hours with chemical substance): 1.1
The level of expressed mRNA in the presence of chemical substance/The level of expressed mRNA in the absence of chemical substance (yeast gene YOL083W, incubated two hours with chemical substance): 1.3
The level of expressed mRNA in the presence of chemical substance/The level of expressed mRNA in the absence of chemical substance (yeast gene YOL117W, incubated two hours with chemical substance): 1.1
The level of expressed mRNA in the presence of chemical substance/The level of expressed mRNA in the absence of chemical substance (yeast gene YOL131W, incubated two hours with chemical substance): 1.1
The level of expressed mRNA in the presence of chemical substance/The level of expressed mRNA in the absence of chemical substance (yeast gene YOL150C): 3.7
The level of expressed mRNA in the presence of chemical substance/The level of expressed mRNA in the absence of chemical substance (yeast gene YOL162W, incubated two hours with chemical substance): 1.6
The level of expressed mRNA in the presence of chemical substance/The level of expressed mRNA in the absence of chemical substance (yeast gene YOR019W, incubated two hours with chemical substance): 1.1
The level of expressed mRNA in the presence of chemical substance/The level of expressed mRNA in the absence of chemical substance (yeast gene YOR197W, incubated two hours with chemical substance): 0.9
The level of expressed mRNA in the presence of chemical substance/The level of expressed mRNA in the absence of chemical substance (yeast gene YPL087W, incubated two hours with chemical substance): 1.0
The level of expressed mRNA in the presence of chemical substance/The level of expressed mRNA in the absence of chemical substance (yeast gene YPL196W, incubated two hours with chemical substance): 1.2
The level of expressed mRNA in the presence of chemical substance/The level of expressed mRNA in the absence of chemical substance (yeast gene YPL206C, incubated two hours with chemical substance): 1.0
The level of expressed mRNA in the presence of chemical substance/The level of expressed mRNA in the absence of chemical substance (yeast gene YPL222W, incubated two hours with chemical substance): 0.7
The level of expressed mRNA in the presence of chemical substance/The level of expressed mRNA in the absence of chemical substance (yeast gene YPR023C, incubated two hours with chemical substance): 0.9
The level of expressed mRNA in the presence of chemical substance/The level of expressed mRNA in the absence of chemical substance (yeast gene YPR151C, incubated two hours with chemical substance): 1.4
